From patent publication EP4775577A1, “RAS INHIBITOR” (Tyligand Bioscience (Shanghai) Limited, priority 2023, dated 2025)

Tests used:
Experiment in all cases: Ba/F3 KRAS-mutant cell proliferation inhibition (CellCounting-Lite 2.0)
Assay type in all cases: cell-based
[1] = system: Ba/F3-KRAS-G 12V; conditions: Mus musculus, BaF3, Ba/F3-KRAS-G 12V (KC-1261), 72 h
Text: (§1) This experiment evaluated the proliferation inhibitory activity of the compounds of the present invention against Ba/F3-KRAS mutant cell lines by using the CellCounting-Lite®2.0 method.
(§2) The following materials, reagents, and instruments were used in this experiment: Cells were all obtained from Kangyuan Bochuang Biotechnology (Beijing) Co., Ltd. RPMI-1640 (Hyclone, SH30809.01); fetal bovine serum (FBS) was used. (GIBCO, 10099-141); Phosphate-buffered saline (PBS) (Solarbio, P1020-500); CellCounting-Lite 2.0 Luminescent Cell Viability Assay (Vazyme, DD1101-02); 96-well plate (Absin, abs7016); Multifunctional microplate reader (BMG LABTECH, CLARIOstar® Plus); CO2 incubator (Thermo Scientific, Model 3100 Series).
(§3) All cell lines were cultured in complete medium at 37°C and 5% CO2. Cells in the logarithmic growth phase were harvested and counted using a platelet counter. Cell viability was assessed using the trypan blue exclusion method to ensure a viability of over 90%. Cell density was adjusted using complete medium (RPMI 1640+10% FBS) and then seeded into 96-well cell culture plates at 90 µL per well, for a total of 3000 cells. The cells in the 96-well plates were cultured at 37°C and 5% CO2. A 10-fold drug solution was prepared using complete medium, and then 10 µL of each serially diluted compound was transferred to the corresponding wells of the 96-well cell culture plate, with two replicates for each drug concentration. The cells in the drug-treated 96-well plates were cultured at 37°C and 5% CO2 for 72 h, followed by CellCounting-Lite 2.0 analysis.
(§4) The CellCounting-Lite 2.0 Luminescent Cell Viability Assay reagent was thawed and the cell plate was equilibrated to room temperature for 30 minutes. An equal volume of CellCounting-Lite 2.0 Luminescent Cell Viability Assay solution was added to each well and the plate was shaken on an orbital shaker for 5 minutes to lyse the cells. The cell plate was placed at room temperature for 20 minutes to stabilize the cryo-luminescence signal. The cryo-luminescence values were read and the data were collected.
(§5) Data was analyzed using GraphPad Prism 7.0 software. A nonlinear S-curve regression was used to fit the data to derive the dose-response curve, and the IC50 value was calculated from this curve. [formula]

[2] = system: Ba/F3-KRAS-G12C-A59S; conditions: Mus musculus, BaF3, Ba/F3-KRAS-G12C-A59S (KC-2605), 72 h
Text: as §1, §2, §3, §4, §5

[3] = system: Ba/F3-KRAS-G12C-A59T; conditions: Mus musculus, BaF3, Ba/F3-KRAS-G12C-A59T (KC-2610), 72 h
Text: as §1, §2, §3, §4, §5

[4] = system: Ba/F3-KRAS-G12C-H95L; conditions: Mus musculus, BaF3, Ba/F3-KRAS-G12C-H95L (KC-3683), 72 h
Text: as §1, §2, §3, §4, §5

[5] = system: Ba/F3-KRAS-G12C-H95R; conditions: Mus musculus, BaF3, Ba/F3-KRAS-G12C-H95R (KC-2618), 72 h
Text: as §1, §2, §3, §4, §5

[6] = system: Ba/F3-KRAS-G12C-Q99L; conditions: Mus musculus, BaF3, Ba/F3-KRAS-G12C-Q99L (KC-2611), 72 h
Text: as §1, §2, §3, §4, §5

[7] = system: Ba/F3-KRAS-G12C-R68M; conditions: Mus musculus, BaF3, Ba/F3-KRAS-G12C-R68M (KC-2604), 72 h
Text: as §1, §2, §3, §4, §5

[8] = system: Ba/F3-KRAS-G12C-Y96S; conditions: Mus musculus, BaF3, Ba/F3-KRAS-G12C-Y96S (KC-2619), 72 h
Text: as §1, §2, §3, §4, §5

[9] = system: Ba/F3-KRAS-G12D; conditions: Mus musculus, BaF3, Ba/F3-KRAS-G12D (KC-1259), 72 h
Text: as §1, §2, §3, §4, §5

[10] = system: Ba/F3-KRAS-G12R; conditions: Mus musculus, BaF3, Ba/F3-KRAS-G12R (KC-2026), 72 h
Text: as §1, §2, §3, §4, §5

[11] = system: Ba/F3-KRAS-G12S; conditions: Mus musculus, BaF3, Ba/F3-KRAS-G12S (KC-2894), 72 h
Text: as §1, §2, §3, §4, §5

[12] = system: Ba/F3-KRAS-G13D; conditions: Mus musculus, BaF3, Ba/F3-KRAS-G13D (KC-1436), 72 h
Text: as §1, §2, §3, §4, §5

[13] = system: Ba/F3-KRAS-Q61H; conditions: Mus musculus, BaF3, Ba/F3-KRAS-Q61H (KC-2620), 72 h
Text: as §1, §2, §3, §4, §5

[14] = 0.05uM, read-out: Inhibition rate% @0.05uM
[15] = 1uM, read-out: Inhibition rate% @1uM

CCN1CC/C(=C\F)[C@](C)(COc2nc(N3Cc4c(COC)c(C(=O)N(C)C)nn4CC[C@@H]3C)c3cc(Cl)c(-c4c(F)ccc5sc(N)c(C#N)c45)c(F)c3n2)C1 (single isomer, unassigned) [Example 228A]
inhibition at 0.05 µM [1, 14]: 99.9%
inhibition at 1 µM [1, 15]: 100%
inhibition at 0.05 µM [2, 14]: 83.3%
inhibition at 1 µM [2, 15]: 97.4%
inhibition at 0.05 µM [3, 14]: 79.8%
inhibition at 1 µM [3, 15]: 95.1%
inhibition at 0.05 µM [4, 14]: 99.7%
inhibition at 1 µM [4, 15]: 100%
inhibition at 0.05 µM [5, 14]: 71.9%
inhibition at 1 µM [5, 15]: 98.6%
inhibition at 0.05 µM [6, 14]: 93.9%
inhibition at 1 µM [6, 15]: 98.1%
inhibition at 0.05 µM [7, 14]: 91.6%
inhibition at 1 µM [7, 15]: 96.6%
inhibition at 0.05 µM [8, 14]: 45.4%
inhibition at 1 µM [8, 15]: 74.9%
inhibition at 0.05 µM [9, 14]: 99.5%
inhibition at 1 µM [9, 15]: 99.8%
inhibition at 0.05 µM [10, 14]: 85.7%
inhibition at 1 µM [10, 15]: 97.6%
inhibition at 0.05 µM [11, 14]: 96.4%
inhibition at 1 µM [11, 15]: 98.8%
inhibition at 0.05 µM [12, 14]: 88.1%
inhibition at 1 µM [12, 15]: 98.2%
inhibition at 0.05 µM [13, 14]: 99.1%
inhibition at 1 µM [13, 15]: 99.6%
